The text below walks through data of US20210032205A1, “HETEROARYL SULFONAMIDE COMPOUND AND FORMULATION FOR CONTROLLING HARMFUL ORGANISMS” (Nippon Soda Co., Ltd., priority 2018, published 2021).

Molecules are shown by their SMILES. A value given as a limit tells only on which side of the number the result lay.

In data set [1] the test system is Heterodera glycines. Briefly: Efficacy test against Heterodera glycines (in vitro test). Format: in vivo. The note with it: 72 h, second-instar larvae (L2), 3 days at 25° C., 96-well microplate, read-out: nematode mortality rate against Heterodera glycines. The protocol:
(§1) A suspension containing about 50 second-instar larvae (L2) of Heterodera glycines per 0.2 mL was prepared. The compound of the present invention was dissolved in DMSO, so that a DMSO solution containing the compound at a concentration of 10,000 pm was prepared. 200 μL of the suspension mentioned above per well and 0.2 μL of the DMSO solution of the compound mentioned above per well were dispensed into each well of a 96-well microplate. The final concentration of the compound of the present invention per well was 10 ppm. The 96-well microplate was placed for 3 days at 25° C. Subsequently, mortality was investigated, and the nematode mortality rate was calculated. […] The test was repeated.

In data set [2] the test system is Mythimna separata. Briefly: Efficacy test against Mythimna separata (artificial feed). It counts as in vivo. The note with it: second-instar larvae; 1 μl of 5% emulsion (I) in 0.8 g artificial feed; 5 days at 25° C. The protocol: (§2) Five parts of the compound of the present invention, 93.6 parts of dimethylformamide and 1.4 parts of a polyoxyethylene alkyl aryl ether were mixed together and dissolved to obtain an emulsion (I) containing 5% of the active ingredient.
An emulsion (II) containing 0% of an active ingredient was prepared in the same method as that described above, with the exception that 5 parts of the compound of the present invention was not mixed and dissolved.
(§3) The mortality rate was calculated using the following equation.
(§4) Mortality rate (%)=(number of dead insects/number of test insects)×100
First, 0.8 g of an artificial feed (Insecta LFS, manufactured by Nosan Corporation) and 1 μl of the emulsion (I) were mixed thoroughly, and 0.2 g of the resulting mixture was placed in each of the treatment areas of a plastic test container (volume: 1.4 ml) to complete preparation of a test feed. Two second-instar larvae of Mythimna separata were inoculated into each treatment area, and the plastic test container was sealed with a plastic lid. The sealed container was placed for 5 days in a thermostatic chamber at 25° C. Subsequently, the mortality rate and the amount of feed consumed were checked. In addition, a test for a control area was carried out under the same conditions as those described above, with the exception of replacing the emulsion (I) with the emulsion (II). The test was repeated in both cases.

Data set [3] relates to Spodoptera litura. The experiment in a line: Efficacy test against Spodoptera litura (cabbage leaf dip). It counts as in vivo. As to conditions: foliar, 144 h, cabbage leaves soaked 30 seconds, second-instar larvae, 6 days after release, 25° C., read-out: mortality rate against Spodoptera litura. How it is done: as §2, §3, §4
The emulsion (I) was diluted with water to achieve a concentration of the compound of the present invention of 125 ppm. Cabbage leaves were soaked in the diluted liquid for 30 seconds. These cabbage leaves were then placed in a Petri dish, and five second-instar larvae of Spodoptera litura were released into the dish. The Petri dish closed with a lid was placed in a thermostatic chamber at a temperature of 25° C. and a humidity of 60%. Mortality was investigated 6 days after larvae release, and the mortality rate was calculated. The test was repeated.

The test system of data set [4] is Caenorhabditis elegans. Briefly: Efficacy test against Caenorhabditis elegans (in vitro test). It counts as in vivo. The note with it: 48 h, mixed instars, 2 days at 25° C., 96-well microplate, read-out: nematode mortality rate against Caenorhabditis elegans. The protocol: as §1, with “50 mixed instars” for “50 second-instar larvae (L2)”, “of Caenorhabditis elegans” for “of Heterodera glycines”, “and 1.0” for “and 0.2”, “was 50” for “was 10”, “for 2” for “for 3”

For data set [5], the system named is Plutella xylostella. Briefly: Efficacy test against Plutella xylostella (cabbage leaf dip). It counts as in vivo. The note with it: foliar, 72 h, cabbage leaves soaked 30 seconds, second-instar larvae, 3 days after release, 25° C., read-out: mortality rate (efficacy test against Plutella xylostella; sentence prints Spodoptera litura). The protocol:
as §2, §3, §4
The emulsion (I) was diluted with water to achieve a concentration of the compound of the present invention of 125 ppm. Cabbage leaves were soaked in the diluted liquid for 30 seconds. These cabbage leaves were then placed in a Petri dish, and five second-instar larvae of Plutella xylostella were released into the dish. The Petri dish closed with a lid was placed in a thermostatic chamber at a temperature of 25° C. and a humidity of 60%. Mortality was investigated 3 days after larvae release, and the mortality rate was calculated. The test was repeated.

For data set [6], the system named is Meloidogyne incognita. Briefly: Efficacy test against Meloidogyne incognita (in vitro test). Format: in vivo. As to conditions: 48 h, second-instar larvae (L2), 2 days at 15° C., 96-well microplate, read-out: nematode mortality rate against Meloidogyne incognita. How it is done:
as §1, with “of Meloidogyne incognita” for “of Heterodera glycines”, “10,000 ppm” for “10,000 pm”, “and 1.0” for “and 0.2”, “was 50” for “was 10”, “for 2” for “for 3”, “at 15°” for “at 25°”

By mortality is commonly meant the percentage killed. Take `O=C(Nc1ccc(C(F)(F)F)cc1)c1cnc(Cl)cc1NS(=O)(=O)C(F)(F)F` [Compound A-1, 6-chloro-N-[4-(trifluoromethyl)phenyl]-4-(trifluoromethylsulfonylamino)pyridine-3-carboxamide]: in data set [1], the mortality at 10 ppm was not below 80%. Also, the “mortality rate against Mythimna separata” value in data set [2] amounted to 100%. Also, the mortality at 125 ppm in data set [3] and in data set [5] was not below 80% in each case. Besides, the mortality at 50 ppm in data set [4] and in data set [6] was not below 80% each time.
On to `O=C(Nc1ccc(C(F)(F)F)cc1)c1ncc(C(F)(F)F)cc1NS(=O)(=O)C(F)(F)F` [Compound A-2], for which, in data set [2], the “mortality rate against Mythimna separata” value is recorded as 100%. The mortality at 125 ppm in data set [3] and in data set [5] was not below 80% throughout. Moreover, the mortality at 50 ppm in data set [6] is not below 80%.
The term melting point denotes the temperature, or range, at which the solid turns liquid. `COC(=O)c1cc(F)c(F)cc1NC(=O)c1ncc(C(F)(F)F)cc1NS(=O)(=O)C(F)(F)F` [Compound A-3] came in with a melting point of 270 °C.
Take `O=C(Nc1ccc(C(F)(F)F)cc1)c1ccc(Cl)nc1NS(=O)(=O)C(F)(F)F` [Compound A-4]: in data set [2], the “mortality rate against Mythimna separata” value was found to be 100%. In addition, the mortality at 125 ppm in data set [3] and in data set [5] was not below 80% in each case. Besides, the mortality at 50 ppm in data set [6] was not below 80%.
For the compound `O=C(Nc1ccc(C(F)(F)F)cc1)c1cc(Cl)ncc1NS(=O)(=O)C(F)(F)F` [Compound A-5], the mortality at 10 ppm in data set [1] was not below 80%. In addition, in data set [2], the “mortality rate against Mythimna separata” value is reported as 100%. Also, the mortality at 50 ppm in data set [4] and in data set [6] was not below 80% throughout.
Regarding `O=C(Nc1cc(F)c(F)cc1-n1cccn1)c1sc(Cl)cc1NS(=O)(=O)C(F)(F)F` [Compound A-6], in data set [2], the “mortality rate against Mythimna separata” value came out at 100%. In addition, the mortality at 50 ppm in data set [6] was not below 80%.
With `O=C(Nc1ccc(F)c(F)c1)c1cnc(Cl)cc1NS(=O)(=O)C(F)(F)F` [Compound A-7], the mortality at 10 ppm in data set [1] is not below 80%. The “mortality rate against Mythimna separata” value in data set [2] was 100%. In addition, the mortality at 50 ppm in data set [4] and in data set [6] was not below 80% in each case.
